Measured values from patent US12077503B2, “Substituted cyclic amides and their use as herbicides” (FMC CORPORATION, priority 2015, dated 2024).

Legend:
Format in all cases: in vivo
[1] = test system: giant foxtail (Setaria faberi); experiment: Test G Post-Emergence Protocol; details: Setaria faberi, post-emergence, 312 h, read-out: Foxtail, Giant damage rating; for pest or weed control at 15.625 g/ha: 15.625 g ai/ha, evaluated after 13 days (100=total damage to plant; 0=no damage to plant); for pest or weed control at 62.5 g/ha: 62.5 g ai/ha; for pest or weed control at 62.5 g/ha / pest or weed control at 250 g/ha: evaluated after 13 days, 100=total damage to plant, 0=no damage to plant; for pest or weed control at 250 g/ha: 250 g ai/ha
Procedure, shortened: (§1)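 Values are percent visual injury at 13 days after treatment (0 none, 100 total). Treatment was a post-emergence spray at 15.625, 62.5 or 250 g/ha on 8-day-old pot plants kept at 24/16 °C.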

[2] = test system: corn (Zea mays); experiment: Test G Post-Emergence Protocol; details: Zea mays, post-emergence, 312 h, read-out: Corn damage rating; for plant injury at 15.625 g/ha: 15.625 g ai/ha, evaluated after 13 days (100=total damage to plant; 0=no damage to plant); for plant injury at 62.5 g/ha: 62.5 g ai/ha; for plant injury at 62.5 g/ha / plant injury at 250 g/ha: evaluated after 13 days, 100=total damage to plant, 0=no damage to plant; for plant injury at 250 g/ha: 250 g ai/ha
Procedure, shortened: as §1

[3] = test system: ivy-leaved morning glory (Ipomoea hederacea); experiment: Test G Post-Emergence Protocol; details: Ipomoea, post-emergence, 312 h, read-out: Morningglory, Ivy-leaved damage rating; for pest or weed control at 15.625 g/ha: 15.625 g ai/ha, evaluated after 13 days (100=total damage to plant; 0=no damage to plant); for pest or weed control at 62.5 g/ha: 62.5 g ai/ha; for pest or weed control at 62.5 g/ha / pest or weed control at 250 g/ha: evaluated after 13 days, 100=total damage to plant, 0=no damage to plant; for pest or weed control at 250 g/ha: 250 g ai/ha
Procedure, shortened: as §1

[4] = test system: barnyardgrass (Echinochloa crus-galli); experiment: Test G Post-Emergence Protocol; details: Echinochloa crus-galli, post-emergence, 312 h, read-out: Barnyardgrass damage rating; for pest or weed control at 15.625 g/ha: 15.625 g ai/ha, evaluated after 13 days (100=total damage to plant; 0=no damage to plant); for pest or weed control at 62.5 g/ha: 62.5 g ai/ha; for pest or weed control at 62.5 g/ha / pest or weed control at 250 g/ha: evaluated after 13 days, 100=total damage to plant, 0=no damage to plant; for pest or weed control at 250 g/ha: 250 g ai/ha
Procedure, shortened: as §1

[5] = test system: redroot pigweed (Amaranthus retroflexus); experiment: Test G Post-Emergence Protocol; details: Amaranthus retroflexus, post-emergence, 312 h, read-out: Pigweed, Redroot damage rating; for pest or weed control at 15.625 g/ha: 15.625 g ai/ha, evaluated after 13 days (100=total damage to plant; 0=no damage to plant); for pest or weed control at 62.5 g/ha: 62.5 g ai/ha; for pest or weed control at 62.5 g/ha / pest or weed control at 250 g/ha: evaluated after 13 days, 100=total damage to plant, 0=no damage to plant; for pest or weed control at 250 g/ha: 250 g ai/ha
Procedure, shortened: as §1

[6] = test system: velvetleaf (Abutilon theophrasti); experiment: Test G Post-Emergence Protocol; details: Abutilon theophrasti, post-emergence, 312 h, read-out: Velvetleaf damage rating; for pest or weed control at 15.625 g/ha: 15.625 g ai/ha, evaluated after 13 days (100=total damage to plant; 0=no damage to plant); for pest or weed control at 62.5 g/ha: 62.5 g ai/ha; for pest or weed control at 62.5 g/ha / pest or weed control at 250 g/ha: evaluated after 13 days, 100=total damage to plant, 0=no damage to plant; for pest or weed control at 250 g/ha: 250 g ai/ha
Procedure, shortened: as §1

[7] = test system: giant foxtail (Setaria faberi); experiment: Test G Pre-Emergence Protocol; details: Setaria faberi, pre-emergence, 312 h, evaluated after 13 days; for pest or weed control at 15.625 g/ha: 15.625 g ai/ha; for pest or weed control at 15.625 g/ha / pest or weed control at 250 g/ha: read-out: Foxtail, Giant damage rating (100=total damage to plant; 0=no damage to plant); for pest or weed control at 62.5 g/ha: 62.5 g ai/ha, 100=total damage to plant, 0=no damage to plant, read-out: Foxtail, Giant damage rating; for pest or weed control at 250 g/ha: 250 g ai/ha
Procedure, shortened: (§2)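 Seeds were sown in standard soil and kept one day in a glasshouse (24/16° C day/night, 14 h light, 65% humidity), then sprayed with compound in acetone/water (50:50) containing 0.5% Tween 20 at 15.625, 62.5 or 250 g/ha. Damage was scored after 13 days (0 = none, 100 = total).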

[8] = test system: corn (Zea mays); experiment: Test G Pre-Emergence Protocol; details: Zea mays, pre-emergence, 312 h, evaluated after 13 days; for plant injury at 15.625 g/ha: 15.625 g ai/ha; for plant injury at 15.625 g/ha / plant injury at 250 g/ha: read-out: Corn damage rating (100=total damage to plant; 0=no damage to plant); for plant injury at 62.5 g/ha: 62.5 g ai/ha, 100=total damage to plant, 0=no damage to plant, read-out: Corn damage rating; for plant injury at 250 g/ha: 250 g ai/ha
Procedure, shortened: as §2

[9] = test system: ivy-leaved morning glory (Ipomoea hederacea); experiment: Test G Pre-Emergence Protocol; details: Ipomoea, pre-emergence, 312 h, evaluated after 13 days; for pest or weed control at 15.625 g/ha: 15.625 g ai/ha; for pest or weed control at 15.625 g/ha / pest or weed control at 250 g/ha: read-out: Morningglory, Ivy-leaved damage rating (100=total damage to plant; 0=no damage to plant); for pest or weed control at 62.5 g/ha: 62.5 g ai/ha, 100=total damage to plant, 0=no damage to plant, read-out: Morningglory, Ivy-leaved damage rating; for pest or weed control at 250 g/ha: 250 g ai/ha
Procedure, shortened: as §2

[10] = test system: barnyardgrass (Echinochloa crus-galli); experiment: Test G Pre-Emergence Protocol; details: Echinochloa crus-galli, pre-emergence, 312 h, evaluated after 13 days; for pest or weed control at 15.625 g/ha: 15.625 g ai/ha; for pest or weed control at 15.625 g/ha / pest or weed control at 250 g/ha: read-out: Barnyardgrass damage rating (100=total damage to plant; 0=no damage to plant); for pest or weed control at 62.5 g/ha: 62.5 g ai/ha, 100=total damage to plant, 0=no damage to plant, read-out: Barnyardgrass damage rating; for pest or weed control at 250 g/ha: 250 g ai/ha
Procedure, shortened: as §2

[11] = test system: redroot pigweed (Amaranthus retroflexus); experiment: Test G Pre-Emergence Protocol; details: Amaranthus retroflexus, pre-emergence, 312 h, evaluated after 13 days; for pest or weed control at 15.625 g/ha: 15.625 g ai/ha; for pest or weed control at 15.625 g/ha / pest or weed control at 250 g/ha: read-out: Pigweed, Redroot damage rating (100=total damage to plant; 0=no damage to plant); for pest or weed control at 62.5 g/ha: 62.5 g ai/ha, 100=total damage to plant, 0=no damage to plant, read-out: Pigweed, Redroot damage rating; for pest or weed control at 250 g/ha: 250 g ai/ha
Procedure, shortened: as §2

[12] = test system: velvetleaf (Abutilon theophrasti); experiment: Test G Pre-Emergence Protocol; details: Abutilon theophrasti, pre-emergence, 312 h, evaluated after 13 days; for pest or weed control at 15.625 g/ha: 15.625 g ai/ha; for pest or weed control at 15.625 g/ha / pest or weed control at 250 g/ha: read-out: Velvetleaf damage rating (100=total damage to plant; 0=no damage to plant); for pest or weed control at 62.5 g/ha: 62.5 g ai/ha, 100=total damage to plant, 0=no damage to plant, read-out: Velvetleaf damage rating; for pest or weed control at 250 g/ha: 250 g ai/ha
Procedure, shortened: as §2

Compound	pest or weed control at 15.625 g/ha [1] [%]	pest or weed control at 62.5 g/ha [1] [%]	pest or weed control at 250 g/ha [1] [%]	plant injury at 15.625 g/ha [2] [%]	plant injury at 62.5 g/ha [2] [%]	plant injury at 250 g/ha [2] [%]	pest or weed control at 15.625 g/ha [3] [%]	pest or weed control at 62.5 g/ha [3] [%]	pest or weed control at 250 g/ha [3] [%]	pest or weed control at 15.625 g/ha [4] [%]	pest or weed control at 62.5 g/ha [4] [%]	pest or weed control at 250 g/ha [4] [%]	pest or weed control at 15.625 g/ha [5] [%]	pest or weed control at 62.5 g/ha [5] [%]	pest or weed control at 250 g/ha [5] [%]	pest or weed control at 15.625 g/ha [6] [%]	pest or weed control at 62.5 g/ha [6] [%]	pest or weed control at 250 g/ha [6] [%]	pest or weed control at 15.625 g/ha [7] [%]	pest or weed control at 62.5 g/ha [7] [%]	further results
CN1C[C@H](c2cccc(C(F)(F)F)c2)[C@@H](C(=O)Nc2cccc(O)c2F)C1=O (racemic) [Compound 1806]	0	60	60	0	0	40	0	0	0	0	20	50	0	0	0	0	0	0	20	20	pest or weed control at 250 g/ha [7]: 30%; plant injury at 15.625 g/ha [8]: 0%; plant injury at 62.5 g/ha [8]: 0%; plant injury at 250 g/ha [8]: 0%; pest or weed control at 15.625 g/ha [9]: 0%; pest or weed control at 62.5 g/ha [9]: 0%; pest or weed control at 250 g/ha [9]: 0%; pest or weed control at 15.625 g/ha [10]: 0%; pest or weed control at 62.5 g/ha [10]: 10%; pest or weed control at 250 g/ha [10]: 20%; pest or weed control at 15.625 g/ha [11]: 0%; pest or weed control at 62.5 g/ha [11]: 0%; pest or weed control at 250 g/ha [11]: 10%; pest or weed control at 15.625 g/ha [12]: 0%; pest or weed control at 62.5 g/ha [12]: 0%; pest or weed control at 250 g/ha [12]: 0%
CN1C[C@H](c2ccc(C(F)(F)F)cc2)[C@@H](C(=O)Nc2ccc[n+]([O-])c2C(F)(F)F)C1=O (racemic) [Compound 1813]	0	0	20	0	0	0	0	10	40	0	0	0	0	0	20	0	0	10	0	10	pest or weed control at 250 g/ha [7]: 90%; plant injury at 15.625 g/ha [8]: 0%; plant injury at 62.5 g/ha [8]: 0%; plant injury at 250 g/ha [8]: 0%; pest or weed control at 15.625 g/ha [9]: 0%; pest or weed control at 62.5 g/ha [9]: 0%; pest or weed control at 250 g/ha [9]: 20%; pest or weed control at 15.625 g/ha [10]: 0%; pest or weed control at 62.5 g/ha [10]: 0%; pest or weed control at 250 g/ha [10]: 10%; pest or weed control at 15.625 g/ha [11]: 0%; pest or weed control at 62.5 g/ha [11]: 0%; pest or weed control at 250 g/ha [11]: 20%; pest or weed control at 15.625 g/ha [12]: 0%; pest or weed control at 62.5 g/ha [12]: 0%; pest or weed control at 250 g/ha [12]: 30%
CN1C[C@H](c2ccc(C(F)(F)F)cc2)[C@@H](C(=O)Nc2cccc(F)[n+]2[O-])C1=O (racemic) [Compound 1814]	0	0	10	0	0	0	0	0	0	0	0	0	0	0	0	0	0	0	0	0	pest or weed control at 250 g/ha [7]: 0%; plant injury at 15.625 g/ha [8]: 0%; plant injury at 62.5 g/ha [8]: 0%; plant injury at 250 g/ha [8]: 0%; pest or weed control at 15.625 g/ha [9]: 0%; pest or weed control at 62.5 g/ha [9]: 0%; pest or weed control at 250 g/ha [9]: 0%; pest or weed control at 15.625 g/ha [10]: 0%; pest or weed control at 62.5 g/ha [10]: 0%; pest or weed control at 250 g/ha [10]: 0%; pest or weed control at 15.625 g/ha [11]: 0%; pest or weed control at 62.5 g/ha [11]: 0%; pest or weed control at 250 g/ha [11]: 0%; pest or weed control at 15.625 g/ha [12]: 0%; pest or weed control at 62.5 g/ha [12]: 0%; pest or weed control at 250 g/ha [12]: 0%
